Reference: publication PMC9088798, “An Approach to Derive Functional Peptide Inhibitors of Transcription Factor Activity” (JACS Au, 2022)

Assays:
[1] = target: T1, cJun bZIP/TRE DNA interaction (Homo sapiens, UniProt P05412); test: EMSA, antagonism of cJun/TRE DNA interaction; format: biochemical; conditions: cJun bZIP 20 μM, TRE DNA 2 μM, free DNA band intensity, 4°C 30 minutes, pH 8, 1.3% agarose gel; Hill equation; three independent experiments, one SD
T1 construct: The human cJun bZIP domain spans from Arg252 to Leu308; His-SUMO (N, cleaved yes); AS cap (two residues Ala-Ser) (N); GAP cap (three residues Gly-Ala-Pro) (C); made in house; host or cells: E. coli (pET21-His-SUMO plasmid)
T1 sequence (P05412 252-308): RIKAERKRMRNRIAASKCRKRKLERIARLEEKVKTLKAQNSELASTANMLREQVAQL
Text: Figure 6 HingeW antagonizes cJun/TRE DNA interaction more effectively than A-FosW. (A) CD spectra showing a shift in the TRE DNA peak at ∼281 nm upon addition of cJun, which is reversed by the titration of HingeW into the sample, as HingeW sequesters the cJun in a nonfunctional heterodimer. […] EMSA showing the (C) unbound TRE DNA band shift upon addition of cJun and the subsequent restoration of the unbound DNA band intensity upon titration of either (D) HingeW or (E) A-FosW. (F). For both CD and EMSA, data was averaged from three independent experiments and the plotted error bars indicate one standard deviation.
To provide further evidence of functional antagonism, an electrophoretic mobility shift assay (EMSA) was employed. […] No bound cJun/TRE DNA band was observed as the overall charge of this complex prohibited entry into the gel. Antagonism was therefore best observed by monitoring the intensity of the free DNA band. […]
Control experiments involved the injection of the antagonist peptide sample into the cell containing ITC buffer alone to determine the heat of dilution which was subtracted. The resulting binding data were fit to a one site binding model to extract the enthalpy change of binding (ΔH) and the equilibrium binding constant (K D), from which the free energy change of binding (ΔG) and the entropy change of binding (ΔS) was calculated (41). […]

cJun bZIP = test: CD thermal denaturation of heterodimer with cJun bZIP; format: binding, human
Experimental: Figure 5 TBS winner peptide HingeW binds cJun preferentially over A-FosW. CD spectra (20 °C) show the binding of cJun to either (A) HingeW or (B) A-FosW. […] However, the effect is larger for HingeW, indicating a greater increase in peptide helicity. Similarly, the thermal denaturation of cJun bound to either (C) HingeW or (D) A-FosW is right-shifted from the average of the component peptide denaturation profiles. […] CD dimer exchange spectra show (E) an increase in helicity when HingeW is mixed with the A-FosW/cJun heterodimer as the HingeW exchanges with the A-FosW due to the binding preference of cJun for HingeW and (F) no shift from the average is observed when A-FosW is mixed with the HingeW/cJun heterodimer, indicating no change in dimer populations. Arrows are shown to highlight the shift from the average at 190 and 222 nm. In all experiments, the total sample peptide concentration was fixed to 10 μM, using equimolar concentrations of each component peptide to remove concentration-dependent effects. […]
µM) alongside ampicillin, kanamycin and chloramphenicol to maintain the required plasmids, and IPTG (1 mM) to induce protein expression. The library transformants were […]
however a lower stringency is used initially before selection is increased in later steps.
Colonies from this first round of selection were pooled and serially grown in liquid culture at starting OD600 of 0.05 and grown at 37°C with shaking at 200 rpm until the OD600 […]
increased to the optimum 4 µM in subsequent passages. Bacteria containing the most effective functional antagonists were expected to produce higher levels of TRE-mDHFR which provides a growth advantage, and these will dominate the culture. At each passage step, a sample of the culture was plated on LB agar (supplemented with antibiotics to maintain plasmids) to select and sequence individual colonies, and a DNA pool was also sequenced. This allows the occurrence of library members to be monitored as winner sequences are selected for. […]

cJun = target: T2, cJun (Homo sapiens, UniProt P05412); test: Isothermal titration calorimetry, binding to cJun; conditions: ITC, average of two independent experiments, one SD
T2 construct: The human cJun bZIP domain spans from Arg252 to Leu308; His-SUMO (N, cleaved yes); AS cap (two residues Ala-Ser) (N); GAP cap (three residues Gly-Ala-Pro) (C); made in house; host or cells: E. coli (pET21-His-SUMO plasmid)
T2 sequence (P05412 252-308): as above
Experimental: (§1) Isothermal Titration Calorimetry (ITC): Peptides were studied in an ITC buffer consisting of 10 mM potassium phosphate, 150 mM potassium fluoride and 5 mM TCEP at pH 7.4. Using a MicroCal VP-ITC instrument (Malvern), 10 µL injections of antagonist peptide (HingeW or A-FosW) at 10 µM were injected into the cell containing cJun at 1 µM.
(§2) MicroCal Origin software was used to record and analyse the heat change upon addition.
(§3) Control experiments involved the injection of the antagonist peptide sample into the cell containing ITC buffer alone to determine the heat of dilution which was subtracted. The resulting binding data were fit to a one site binding model to extract the enthalpy change of binding (ΔH) and the equilibrium binding constant (K D), from which the free energy change of binding (ΔG) and the entropy change of binding (ΔS) was calculated (41).
(§4) Thermodynamic parameters are presented as an average of two independent experiments with errors given as one standard deviation. […]

TRE DNA = test: EMSA, binding of cJun bZIP to TRE DNA; conditions: cJun bZIP 20 μM, TRE DNA 2 μM, relative to DNA alone
Experimental: To provide further evidence of functional antagonism, an electrophoretic mobility shift assay (EMSA) was employed. […] No bound cJun/TRE DNA band was observed as the overall charge of this complex prohibited entry into the gel. Antagonism was therefore best observed by monitoring the intensity of the free DNA band.
as §1, §2, §3, §4

IC50 [1] [µM]	Kd (cJun; 10 µM antagonist peptide injected into 1 µM cJun, 10 mM potassium phosphate, 150 mM KF, 5 mM TCEP, pH 7.4, one site model) [µM]	TΔS (cJun) [kJ mol^–1]	ΔH (cJun) [kJ mol^–1]	N (binding stoichiometry) (cJun; single-site binding model)	Substance	smaller initial transition of heterodimer with cJun (double transition) (cJun bZIP; 222 nm thermal denaturation) [°C]	Tm of heterodimer with cJun (cJun bZIP; 222 nm, 1-90 °C at 1 °C increments, total peptide 10 μM equimolar, pH 7.4, two-state model) [°C]	ΔTm from component average (heterodimer with cJun) (cJun bZIP; heterodimer Tm minus average of component peptide denaturation profiles, for HingeW an estimate because homodimer Tm undeterminable) [°C]	free DNA band intensity on adding cJun bZIP (TRE DNA)
12.1 ± 1.9	0.0883 ± 0.0176	−112.6 ± 4.1	−152.6 ± 4.1	1.04 ± 0.08	LEQRAEELARENEELEKEAEELEQELDELQAEIEQLEERNYALRKEIEDLQKQLEKL [A-FosW, N-terminal AS and C-terminal GAP caps, 6xHis-tagged]	~30	69.9	27.5	–
–	–	–	–	–	cJun bZIP: human cJun bZIP domain, Arg252 to Leu308 (target protein)	–	–	–	significant reduction in the free DNA band intensity
